# Reference: US5863950A, “HIV protease inhibitors” (Agouron Pharmaceuticals, Inc., priority 1994, dated 1999)
# Several values for one entry are separate records, joined by “and”; a condition that tells them apart may be missing. Equal entries are not always repeated.
# Target: T1, HIV-1 protease (Human immunodeficiency virus type 1 group M subtype B, UniProt P04585)
# T1 construct: purified HIV-1 protease
# Assay: biochemical
# Type: biochemical
# Conditions: not given
# Description: 1. Proteolytic activity of purified HIV-1 protease was routinely measured using the chromogenic assay developed by Richards et al. (J. Biol. Chem. 265: 7733 (1990)). Synthetic peptide His-Lys-Ala-Arg-Val-Leu-Phe (pNO2)-Glu-Ala-Nle-Ser-NH2 (American Peptide Company) was used as the substrate.
# 2. The assay was carried out in 0.5M NaCl, 50 mM MES pH 5.6, 2% DMSO (dimethylsulfoxide) at 37° C. Cleavage of the scissile bond between leucine and paranitro-phenylalanine (Phe(pNO2)) was assayed by spectrophotometric monitoring of the decrease in absorbance at 305 nm. Initial velocity was determined as the rate of decline of absorbance during the first 100 seconds of reaction.
# 3. […] Between 15-25 concentrations of inhibitor were added and velocity of reaction was measured at each of the concentrations, as described above.
# 4. Inhibition constants were calculated using the method of Jackson et al. (Adv. in Enzyme Regulation 22: 187 (1984)).
IC50 [µM],Ki [µM],Compound
0.88,0.48,"CC(C)(C)NC(=O)c1c(CCC(O)Cc2ccc3ccccc3c2C(=O)NC(C)(C)C)ccc2ccccc12 (single isomer, unassigned) [Example 49]"

# Same assay, conditions: 0.5M NaCl, 50 mM MES pH 5.6, 2% DMSO, 37° C., 200 μM substrate
Compound,IC50 [µM],Ki [µM]
"CC(C)(C)NC(=O)[C@@H]1C[C@@H]2CCCC[C@@H]2CN1CC(O)CCc1ccccc1C(=O)N(CCO)C(C)(C)C (single isomer, unassigned) [Example 30]",38,
CC(C)(C)NC(=O)c1ccccc1CC(O)CSc1ccccc1C(=O)NC(C)(C)C (stereo not shown) [Example 23],75 to 100,
CC(C)(C)NC(=O)c1cc(C(C)(C)C)ccc1CC[C@@H](O)Cc1ccc2ccccc2c1C(=O)NC(C)(C)C [Example 8],~20,
CN(C)CCNC(=O)c1ccccc1SCC(O)Cc1ccccc1C(=O)NC(C)(C)C (stereo not shown) [Example 39],> 500,
CC(C)(C)NC(=O)c1ccccc1SCC(O)Cc1ccccc1C(=O)N(CCO)C(C)(C)C (stereo not shown) [Example 36],25,
CCNC(=O)c1ccccc1CC(O)CSc1ccccc1C(=O)NCCN(C)C (stereo not shown) [Example 38],> 500,
CC(C)(C)NC(=O)c1ccccc1CC(O)CSc1ccccc1C(=O)N1CCOCC1 (stereo not shown) [Example 42],150 to 200,
CC(C)(C)NC(=O)c1ccccc1CC(O)C(O)Cc1ccccc1C(=O)NC(C)(C)C (stereo not shown) [Example 56],64,56
CC(C)(C)NC(=O)c1ccccc1CC(O)CSc1ccc(NC(=O)c2ccncc2)cc1C(=O)NC(C)(C)C (stereo not shown) [Example 45],60,
CN(C)CC(C)(C)CNC(=O)c1ccccc1SCC(O)Cc1ccccc1C(=O)NC(C)(C)C (stereo not shown) [Example 40],> 500,
CC(C)(C)N(CCO)C(=O)c1ccccc1CC(O)CSc1ccccc1C(=O)N(CCO)C(C)(C)C (stereo not shown) [Example 85],36,18.4
CC(C)(C)NC(=O)c1ccccc1CCC(O)Cc1ccccc1C(=O)NC(C)(C)C (stereo not shown) [Example 25],18,
CC(C)(C)NC(=O)c1ccccc1SCC(O)CN1CCCCC1C(=O)NC(C)(C)C (stereo not shown) [Example 22],60,
CC(C)(C)NC(=O)c1ccccc1SCC(O)c1ccccc1C(=O)NC(C)(C)C (stereo not shown) [Example 17],> 200,
CC(C)(C)NC(=O)c1ccccc1NCC(O)Cc1ccc2ccccc2c1C(=O)NC(C)(C)C (stereo not shown) [Example 50],120,
CC(C)(C)NC(=O)c1ccccc1CC(O)CSc1ccc2ccccc2c1C(=O)NC(C)(C)C (stereo not shown) [Example 47],50,
CC(C)(C)NC(=O)c1ccccc1CC(O)CSc1ccc(NCc2ccncc2)cc1C(=O)NC(C)(C)C (stereo not shown) [Example 46],200,
CC(C)(C)NC(=O)c1ccccc1SCC(O)Cc1ccc2ccccc2c1C(=O)NC(C)(C)C (stereo not shown) [Example 52],25,
CC(C)(C)NC(=O)c1ccccc1C#CC(O)Cc1ccccc1C(=O)NC(C)(C)C (stereo not shown) [Example 26],> 200,
COC(CSc1ccccc1C(=O)NC(C)(C)C)Cc1ccccc1C(=O)NC(C)(C)C (stereo not shown) [Example 41],> 500,
CN(C)CCNC(=O)c1ccccc1CC(O)CSc1ccccc1C(=O)NCCN(C)C (stereo not shown) [Example 37],> 500,
CC(C)N1CCC(CC(O)CCc2ccc3ccccc3c2C(=O)NC(C)(C)C)=C(C(=O)NC(C)(C)C)C1 (stereo not shown) [Example 48],70,
CC(C)(C)N(CCO)C(=O)c1c(CCC(O)Cc2ccc3ccccc3c2C(=O)N(CCO)C(C)(C)C)ccc2ccccc12 (stereo not shown) [Example 6],30,

# Second part, the compound after the results:
IC50 [µM],Ki [µM],Compound
18,,CC(C)(C)NC(=O)c1cnccc1CC(O)CCc1ccc2ccccc2c1C(=O)NC(C)(C)C (stereo not shown) [Example 11]
15,,CC(C)(C)NC(=O)c1cc(C(C)(C)C)ccc1CCC(O)Cc1ccc(C(C)(C)C)cc1C(=O)NC(C)(C)C (stereo not shown) [Example 10]
11.9,5.8,CC(C)(C)N(CCO)C(=O)c1ccccc1CCC(O)Cc1ccccc1C(=O)N(c1ccccc1)C(C)(C)C (stereo not shown) [Example 68]
9.6,7.7,CC(C)(C)N(CCO)C(=O)c1ccccc1CC(O)C(O)Cc1ccccc1C(=O)N(CCO)C(C)(C)C (stereo not shown) [Example 58]
9,,CC(C)(C)N(CCO)C(=O)c1ccccc1CCC(=O)C(F)c1ccccc1C(=O)N(CCO)C(C)(C)c1ccccc1 (stereo not shown) [Example 70]
8.3,7.9,CC(C)(C)N(CCO)C(=O)c1ccccc1CCC(O)Cc1ccccc1C(=O)N(Cc1ccccc1)C(C)(C)C (stereo not shown) [Example 64]
8,,CC(C)(C)N(CCCO)C(=O)c1ccccc1CCC(O)Cc1ccccc1C(=O)N(CCOCCN1CCOCC1)C(C)(C)c1ccccc1 (stereo not shown) [Example 75]
7,,CC(C)(C)NC(=O)c1c(CCC(O)CCc2ccc3ccccc3c2C(=O)NC(C)(C)C)ccc2ccccc12 [Example 32]
6.3,,CN(C(=O)c1ccccc1CCC(O)Cc1ccccc1C(=O)N(C)C(C)(C)C)C(C)(C)C (stereo not shown) [Example 55]
6,,CC(C)(C)N(CCO)C(=O)c1ccccc1CCC(O)CCc1ccccc1C(=O)N(CCO)C(C)(C)C [Example 33]
5.6,5.4,CC(C)(C)NC(=O)c1c(CCC(O)Cc2ccc3ccccc3c2C(=O)N(CCO)C(C)(C)C)ccc2ccccc12 (stereo not shown) [Example 14]
4.1,2.7,CC(C)(C)NC(=O)c1cc2ccccc2cc1CCC(O)Cc1ccccc1C(=O)N(CCO)C(C)(C)C (stereo not shown) [Example 60]
3.5,3.2,CC(C)(C)N(CCO)C(=O)c1ccccc1CCC(O)C(F)(F)c1ccccc1C(=O)N(CCO)C(C)(C)c1ccccc1 (stereo not shown) [Example 79]
2.38,1.31,CC(C)(C)NC(=O)c1c(CC(O)CCc2ccccc2C(=O)N(CCO)C(C)(C)C)ccc2ccccc12 (stereo not shown) [Example 3]
1.74,0.92,CC(C)(C)N(CCO)C(=O)c1ccccc1CCC(O)Cc1ccccc1C(=O)N(CCOCc1ccccc1)C(C)(C)c1ccncc1 (stereo not shown) [Example 76]
1.33,1.27,CC(C)(C)N(CCO)C(=O)c1ccccc1CCC(O)Cc1ccccc1C(=O)N(CCO)C(C)(C)Cc1ccccc1 (stereo not shown) [Example 61]
1.3,0.879,CC(C)(C)N(CCO)C(=O)c1ccccc1CCC(O)C(F)c1ccccc1C(=O)N(CCO)C(C)(C)c1ccccc1 (stereo not shown) [Example 71]
1.19,0.84,CC(C)(C)NC(=O)c1cc(C(C)(C)C)ccc1CCC(O)Cc1ccccc1C(=O)N(CCO)C(C)(C)C (stereo not shown) [Example 35]
1.02,1.01,CC(C)(C)NC(=O)c1cc(C(C)(C)C)ccc1CCC(O)Cc1ccc2ccccc2c1C(=O)NC(C)(C)C (stereo not shown) [Example 7]
0.72,0.42,Cc1ccc(CCC(O)Cc2ccccc2C(=O)N(CCO)C2(C)CCCC2)c(C(=O)N(CCO)C(C)(C)C)c1 (stereo not shown) [Example 4]
0.448,0.379,Cc1ccc(CC(O)CCc2ccccc2C(=O)N(Cc2ccccc2)C(C)C)c(C(=O)N(CCO)C(C)(C)c2ccccc2)c1 (stereo not shown) [Example 86]
0.23,0.075,CCc1ccc(CC(O)CCc2ccccc2C(=O)N(CCOCc2ccccc2)C(C)(C)c2ccccc2)c(C(=O)N(CCO)C(C)(C)c2ccccc2)c1 (stereo not shown) [Example 88]
0.2,0.176,Cc1cc(CC(O)CCc2ccccc2C(=O)N(CCO)C(C)(C)C)c(C(=O)N(CCO)C(C)(C)c2ccccc2)cc1C (stereo not shown) [Example 90]

# Same assay, conditions: at 10 (μM)
row,percent (inhibition) [%],Compound
1,40,CC(C)(C)NC(=O)c1ccccc1CCC(O)Cc1ccccc1C(=O)N(Cc1ccccc1)C(C)(C)C (stereo not shown) [Example 13]
2,40,CC(C)(C)NC(=O)c1c(CCC(O)Cc2ccccc2C(=O)N(c2ccccc2)C(C)(C)C)ccc2ccccc12 (stereo not shown) [Example 69]
3,40,CC(C)(C)NC(=O)c1c(CCC(O)Cc2ccccc2C(=O)N(Cc2nc3ccccc3[nH]2)C(C)(C)C)ccc2ccccc12 (stereo not shown) [Example 67]

# Same assay, conditions: at 20 (μM)
row,percent (inhibition) [%],Compound
1,40,CC(C)(C)NC(=O)c1cc2ccccc2cc1CCC(O)Cc1ccc2ccccc2c1C(=O)NC(C)(C)C (stereo not shown) [Example 9]

# Same assay, conditions: at 50 (μM)
row,percent (inhibition) [%],Compound
1,20,CC(C)(C)NC(=O)c1c(CCC(O)Cc2ccccc2-c2nccc3ccccc23)ccc2ccccc12 (stereo not shown) [Example 16]

# Same assay, conditions: at 100 (μM)
row,percent (inhibition),Compound
1,20% and 35%,CC(C)(C)NC(=O)c1ccccc1CCC(O)CN1CCCCC1C(=O)NC(C)(C)C (stereo not shown) [Example 31]
2,40%,CC(O)(CCc1ccccc1C(=O)NC(C)(C)C)Cc1ccccc1C(=O)NC(C)(C)C (stereo not shown) [Example 34]
3,20%,CN(C(=O)c1c(CC(O)CCc2ccc3ccccc3c2C(=O)NC(C)(C)C)ccc2c1CNCC2)C(C)(C)C (stereo not shown) [Example 59]

# Same assay, conditions: at 200 (μM)
row,percent (inhibition) [%],Compound
1,20,CC(C)(C)NC(=O)c1ccccc1CC(O)CSc1ccc(N)cc1C(=O)NC(C)(C)C (stereo not shown) [Example 44]
2,20,CC(C)(C)NC(=O)c1ccccc1CC(O)CSc1ccc([N+](=O)[O-])cc1C(=O)NC(C)(C)C (stereo not shown) [Example 43]
3,40,CC(=O)N1CCc2ccc(CC(O)CCc3ccc4ccccc4c3C(=O)NC(C)(C)C)c(C(=O)N(C)C(C)(C)C)c2C1 (stereo not shown) [Example 63]
4,40,CC(C)(C)NC(=O)c1ccccc1/C=C/C(O)Cc1ccccc1C(=O)NC(C)(C)C (stereo not shown) [Example 28]
5,93,CC(C)(C)NC(=O)c1ccccc1CCC(O)C(O)CCc1ccccc1C(=O)NC(C)(C)C (stereo not shown) [Example 57]
6,40,CC(C)(C)NC(=O)c1ccccc1/C=C\C(O)Cc1ccccc1C(=O)NC(C)(C)C (stereo not shown) [Example 27]
7,10,CC(C)(C)NC(=O)c1ccccc1C(O)CSc1ccccc1NC(=O)C(C)(C)C (stereo not shown) [Example 21]

# Same assay, conditions: substrate, standard conditions; read-out: Michaelis constant (Km)
row,Compound,Km [µM]
1,His-Lys-Ala-Arg-Val-Leu-Phe (pNO2)-Glu-Ala-Nle-Ser-NH2 [reference compound],52 ± 16
